Starred links: 1 amine or outer side, 2 acyl side, 3 side chain; linkers in the order of their positions; H or OH if unused. Positions of bridges follow the written chain, without caps; N, C: chain ends. Non-standard residues stand in square brackets, D forms with d. Residues, ends and D or L forms follow the SMILES beside them. Groups on a side chain read outwards from the residue. *: point of attachment. Glutaryl(2-isohexyl,5-OMe) = COC(=O)CCC(CCCC(C)C)C(=O)*; Phe(4-CF3) = N[C@@H](Cc1ccc(C(F)(F)F)cc1)C(=O)O; C18 diacid = O=C(O)CCCCCCCCCCCCCCCCC(=O)*; dDip = N[C@@H](C(=O)O)C(c1ccccc1)c1ccccc1; Lys(Me3) = C[N+](C)(C)CCCC[C@H](N)C(=O)O; Dip = N[C@H](C(=O)O)C(c1ccccc1)c1ccccc1; γGlu = O=C(O)[C@H](CCC(=O)[*:2])N[*:1]; Pro(3R-OH) = O=C(O)[C@H]1NCC[C@H]1O; Palmitoyl = CCCCCCCCCCCCCCCC(=O)*; NMeF = CN[C@@H](Cc1ccccc1)C(=O)O; NMeT = CN[C@H](C(=O)O)[C@@H](C)O; β3hF = N[C@H](CC(=O)O)Cc1ccccc1; NMeK = CN[C@@H](CCCCN)C(=O)O; dNMeK = CN[C@H](CCCCN)C(=O)O; Isovaleryl = CC(C)CC(=O)*; NMeC = CN[C@@H](CS)C(=O)O; hCys = N[C@@H](CCS)C(=O)O; Dap = NC[C@H](N)C(=O)O; AEEA = NCCOCCOCC(=O)O; Ahx = NCCCCCC(=O)O
These molecules were tested against T1, ferroportin (Homo sapiens, UniProt Q9NP59) (assay: FPN activity assay: ferroportin-GFP internalization/degradation in HEK293 cells). Conditions: Table 6E; ferroportin-GFP internalization/degradation, at least 18 hours incubation; read-out: FPN IC50.
T1 sequence (Q9NP59 1-571): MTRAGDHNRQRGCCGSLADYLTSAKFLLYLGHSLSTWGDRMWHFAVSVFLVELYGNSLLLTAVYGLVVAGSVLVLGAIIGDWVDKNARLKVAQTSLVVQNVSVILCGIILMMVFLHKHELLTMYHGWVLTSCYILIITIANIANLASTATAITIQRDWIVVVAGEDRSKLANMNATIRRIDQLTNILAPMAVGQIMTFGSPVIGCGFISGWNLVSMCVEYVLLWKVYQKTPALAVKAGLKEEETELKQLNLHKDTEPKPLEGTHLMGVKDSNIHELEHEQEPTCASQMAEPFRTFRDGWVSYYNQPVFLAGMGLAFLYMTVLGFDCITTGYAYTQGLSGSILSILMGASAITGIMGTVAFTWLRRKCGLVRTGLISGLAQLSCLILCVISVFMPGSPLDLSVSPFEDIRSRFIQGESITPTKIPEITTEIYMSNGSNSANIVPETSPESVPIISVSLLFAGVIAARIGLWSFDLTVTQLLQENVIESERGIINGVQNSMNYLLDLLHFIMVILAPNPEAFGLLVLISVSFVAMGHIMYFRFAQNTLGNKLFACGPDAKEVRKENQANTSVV
Format: cell-based
Design: expressed in transfected cells
Description: Following internalization, the ferroporin protein is degraded.
A retro inverse peptide is a peptide with a reversed sequence in all D amino acids. An example is that Hy-Glu-Thr-His-NH2 becomes Hy-DHis-DThr-DGlu-NH2. The EC50 of these reference compounds for ferroportin internalization/degradation was determined according to the FPN activity assay described above. These peptides served as control standards.

Row | DC50 | SMILES
1 | 0.01 to 0.1 µM | CCCCCCCCCCCCCCCC(=O)NCCCCCC(=O)NCCCC[C@@H](C(=O)N[C@H](C(=O)N[C@H](CCCCN)C(N)=O)C(c1ccccc1)c1ccccc1)N(C)C(=O)[C@@H]1CSSC[C@H](NC(=O)[C@@H]2CCCN2C(=O)[C@@H](NC(=O)[C@H](Cc2c[nH]cn2)NC(=O)[C@@H]2[C@H](O)CCN2C(=O)[C@H](CCC(=O)O)NC(=O)CC(C)C)C(c2ccccc2)c2ccccc2)C(=O)N1 [compound 174] (Isovaleryl-E[Pro(3R-OH)]H[Dip]PCC[NMeK]([Ahx-Palmitoyl])[Dip][dK]-NH2; disulfide 6-7)
2 | > 0.5 µM | COC(=O)CC[C@H](NC(=O)CC(C)C)C(=O)N(C)[C@H](C(=O)N[C@@H](Cc1c[nH]cn1)C(=O)N[C@H](C(=O)N1CCC[C@H]1C(=O)N[C@H]1CSSC[C@@H](C(=O)N(C)[C@@H](Cc2ccccc2)C(N)=O)NC1=O)C(c1ccccc1)c1ccccc1)[C@@H](C)O [compound 184] (Isovaleryl-E(OMe)[NMeT]H[Dip]PCC[NMeF]-NH2; disulfide 6-7)
3 | 0.1 to 0.5 µM | COC(=O)CCC(CCCC(C)C)C(=O)N[C@H](C(=O)N[C@@H](Cc1c[nH]cn1)C(=O)N[C@H](C(=O)N1CCC[C@H]1C(=O)N[C@H]1CSSC[C@@H](C(=O)N[C@H](CCCCN)C(=O)N[C@H](C(=O)N[C@H](CCCCN)C(N)=O)C(c2ccccc2)c2ccccc2)NC1=O)C(c1ccccc1)c1ccccc1)[C@@H](C)O (stereo partly drawn) [compound 135] ({Glutaryl(2-isohexyl,5-OMe)}-TH[Dip]PCC[dK][Dip][dK]-NH2; disulfide 5-6)
4 | 0.01 to 0.1 µM | CC(C)CC(=O)N[C@@H](CCC(=O)O)C(=O)N[C@H](C(=O)N[C@@H](Cc1c[nH]cn1)C(=O)N[C@H](C(=O)N1CCC[C@H]1C(=O)N[C@H]1CSSC[C@@H](C(=O)N[C@@H](CCCC[N+](C)(C)C)C(=O)N[C@@H](C(N)=O)C(c2ccccc2)c2ccccc2)NC1=O)C(c1ccccc1)c1ccccc1)[C@@H](C)O [compound 140] (Isovaleryl-ETH[Dip]PCC[Lys(Me3)][dDip]-NH2; disulfide 6-7)

Same assay, conditions: ferroportin-GFP HEK293 cells, at least 18 hours; read-out: FPN IC50

Row | DC50 | SMILES
5 | 0.1 to 0.5 µM | CC[C@H](C)[C@H](NC(=O)[C@@H]1CSSC[C@H](NC(=O)[C@@H](NC(=O)[C@H](Cc2c[nH]cn2)NC(=O)[C@@H](NC(=O)[C@H](CCC(=O)O)NC(=O)CC(C)C)[C@@H](C)O)C(c2ccccc2)c2ccccc2)C(=O)N1)C(=O)N[C@H](CCCCN)C(=O)N[C@H](CC(=O)N[C@@H](CCCCNC(=O)COCCOCCNC(=O)COCCOCCNC(=O)CC[C@H](NC(=O)CCCCCCCCCCCCCCCCC(=O)O)C(=O)O)C(=O)N[C@H](CCCCN)C(N)=O)Cc1ccccc1 [Compd 34] (Isovaleryl-ETH[Dip]CCI[dK][β3hF]K([AEEA-AEEA-γGlu-C18 diacid])[dK]-NH2; disulfide 5-6)
6 | > 0.5 µM | CCCCCCCCCCCCCCCC(=O)NCCCCCC(=O)NCCCC[C@H](NC(=O)[C@@H](NC(=O)[C@@H]1CCSSCC[C@H](NC(=O)CC(C)C)C(=O)N[C@@H](CCC(=O)O)C(=O)N[C@@H]([C@@H](C)O)C(=O)N[C@@H](Cc2c[nH]cn2)C(=O)N[C@@H](C(c2ccccc2)c2ccccc2)C(=O)N2CCC[C@H]2C(=O)N1)[C@@H](C)CC)C(=O)N[C@H](CC(N)=O)Cc1ccccc1 [Compd 15] (Isovaleryl-[hCys]ETH[Dip]P[hCys]IK([Ahx-Palmitoyl])[β3hF]-NH2; disulfide 1-7)
7 | 0.1 to 0.5 µM | CC[C@H](C)[C@H](NC(=O)[C@@H]1CSSC[C@H](NC(=O)[C@H](Cc2c[nH]cn2)NC(=O)[C@@H](NC(=O)[C@H](CCC(=O)O)NC(=O)CC(C)C)[C@@H](C)O)C(=O)N2CCC[C@H]2C(=O)N1)C(=O)N[C@@H](CCCCNC(=O)COCCOCCNC(=O)COCCOCCNC(=O)CCCCCNC(=O)CCCCCCCCCCCCCCCCC(=O)O)C(=O)N[C@H](CC(=O)N[C@H](CCCCN)C(N)=O)Cc1ccccc1 [Compd 20] (Isovaleryl-ETHCPCIK([AEEA-AEEA-Ahx-C18 diacid])[β3hF][dK]-NH2; disulfide 4-6)
8 | 0.01 to 0.1 µM | CCCCCCCCCCCCCCCC(=O)NCCCCCC(=O)NCCCC[C@H](NC(=O)C[C@H](Cc1ccccc1)NC(=O)[C@@H]1CCSSCC[C@H](NC(=O)CC(C)C)C(=O)N[C@@H]([C@@H](C)O)C(=O)N[C@@H](Cc2cnc[nH]2)C(=O)N[C@@H](C(c2ccccc2)c2ccccc2)C(=O)N2CCC[C@H]2C(=O)N[C@@H](C)C(=O)N[C@@H]([C@@H](C)CC)C(=O)N1)C(=O)N[C@H](CCCCN)C(N)=O [compound 111] (Isovaleryl-[hCys]TH[Dip]PAI[hCys][β3hF]K([Ahx-Palmitoyl])[dK]-NH2; disulfide 1-8)
9 | 0.001 to 0.01 µM | CCCCCCCCCCCCCCCC(=O)NCCCCCC(=O)NCCCC[C@H](NC(=O)C[C@H](Cc1ccccc1)NC(=O)[C@@H]1CSSCC[C@H](NC(=O)CC(C)C)C(=O)N[C@@H]([C@@H](C)O)C(=O)N[C@@H](Cc2cnc[nH]2)C(=O)N[C@@H](C(c2ccccc2)c2ccccc2)C(=O)N2CCC[C@H]2C(=O)N[C@@H](C)C(=O)N[C@@H]([C@@H](C)CC)C(=O)N1)C(=O)N[C@H](CCCCN)C(N)=O [compound 110] (Isovaleryl-[hCys]TH[Dip]PAIC[β3hF]K([Ahx-Palmitoyl])[dK]-NH2; disulfide 1-8)
10 | 0.1 to 0.5 µM | CCCCCCCCCCCCCCCC(=O)NCCCCCC(=O)NCCCC[C@H](NC(=O)[C@@H](NC(=O)[C@@H]1CCSSCC[C@H](NC(C)=O)C(=O)N[C@@H](CCC(=O)O)C(=O)N[C@@H]([C@@H](C)O)C(=O)N[C@@H](Cc2c[nH]cn2)C(=O)N[C@@H](C(c2ccccc2)c2ccccc2)C(=O)N2CCC[C@H]2C(=O)N1)[C@@H](C)CC)C(=O)N[C@H](CC(N)=O)Cc1ccccc1 [Compd 14] (Ac-[hCys]ETH[Dip]P[hCys]IK([Ahx-Palmitoyl])[β3hF]-NH2; disulfide 1-7)
11 | > 0.5 µM | CC[C@H](C)[C@H](NC(=O)[C@@H]1CSSC[C@H](NC(=O)[C@H](Cc2c[nH]cn2)NC(=O)[C@@H](NC(=O)[C@H](CCC(=O)O)NC(=O)CC(C)C)[C@@H](C)O)C(=O)N2CCC[C@H]2C(=O)N1)C(=O)N[C@H](CCCCN)C(=O)N[C@H](CC(=O)N[C@@H](CCCCNC(=O)COCCOCCNC(=O)COCCOCCNC(=O)CC[C@H](NC(=O)CCCCCCCCCCCCCCCCC(=O)O)C(=O)O)C(=O)N[C@H](CCCCN)C(N)=O)Cc1ccccc1 [Compd 33] (Isovaleryl-ETHCPCI[dK][β3hF]K([AEEA-AEEA-γGlu-C18 diacid])[dK]-NH2; disulfide 4-6)
12 | 0.1 to 0.5 µM | CC[C@H](C)[C@H](NC(=O)[C@@H]1CSSC[C@H](NC(=O)[C@@H](NC(=O)[C@H](Cc2c[nH]cn2)NC(=O)[C@@H](NC(=O)[C@H](CCC(=O)O)NC(=O)CC(C)C)[C@@H](C)O)C(c2ccccc2)c2ccccc2)C(=O)N1)C(=O)N[C@H](CCCCN)C(=O)N[C@H](CC(=O)N[C@@H](CCCCNC(=O)COCCOCCNC(=O)COCCOCCNC(=O)CCCCCNC(=O)CCCCCCCCCCCCCCCCC(=O)O)C(=O)N[C@H](CCCCN)C(N)=O)Cc1ccccc1 [Compd 25] (Isovaleryl-ETH[Dip]CCI[dK][β3hF]K([AEEA-AEEA-Ahx-C18 diacid])[dK]-NH2; disulfide 5-6)

Same assay, conditions: ferroportin-GFP internalization/degradation, HEK293 cells; Table 6E; read-out: FPN IC50

Row | DC50 | SMILES
13 | 0.01 to 0.1 µM | CC(C)CC(=O)N[C@@H](CCC(=O)O)C(=O)N[C@H](C(=O)N[C@@H](Cc1c[nH]cn1)C(=O)N[C@H](C(=O)N1CCC[C@H]1C(=O)N[C@H]1CSSC[C@@H](C(=O)N(C)[C@@H](CCCCNC(=O)COCCOCCNC(=O)COCCOCCNC(=O)[C@H](CN)NC(=O)CCCCCCCCCCCCCCCCC(=O)O)C(=O)N[C@H](CC(=O)N(C)[C@H](CCCCN)C(N)=O)Cc2ccccc2)NC1=O)C(c1ccccc1)c1ccccc1)[C@@H](C)O [compound 276] (Isovaleryl-ETH[Dip]PCC[NMeK]([AEEA-AEEA-Dap-C18 diacid])[β3hF][dNMeK]-NH2; disulfide 6-7)
14 | 0.1 to 0.5 µM | CC(C)CC(=O)N[C@@H](CCC(=O)O)C(=O)N[C@H](C(=O)N[C@@H](Cc1ccc(C(F)(F)F)cc1)C(=O)N[C@H](C(=O)N1CCC[C@H]1C(=O)N[C@H]1CSSC[C@@H](C(=O)N(C)[C@@H](CCCCNC(=O)COCCOCCNC(=O)COCCOCCNC(=O)[C@H](CN)NC(=O)CCCCCCCCCCCCCCCCC(=O)O)C(=O)N[C@H](CC(=O)N[C@H](CCCCN)C(N)=O)Cc2ccccc2)NC1=O)C(c1ccccc1)c1ccccc1)[C@@H](C)O [compound 286] (Isovaleryl-ET[Phe(4-CF3)][Dip]PCC[NMeK]([AEEA-AEEA-Dap-C18 diacid])[β3hF][dK]-NH2; disulfide 6-7)
15 | 0.1 to 0.5 µM | CC(C)CC(=O)N[C@@H](CCC(=O)O)C(=O)N[C@H](C(=O)N[C@@H](Cc1c[nH]cn1)C(=O)N[C@H](C(=O)N1CCC[C@H]1C(=O)N[C@H]1CSSC[C@@H](C(=O)N(C)[C@@H](CCCCNC(=O)COCCOCCNC(=O)COCCOCCNC(=O)[C@H](CN)NC(=O)CCCCCCCCCCCCCCCCC(=O)O)C(=O)N(C)[C@@H](Cc2ccccc2)C(=O)N[C@H](CCCCN)C(N)=O)N(C)C1=O)C(c1ccccc1)c1ccccc1)[C@@H](C)O [compound 281] (Isovaleryl-ETH[Dip]PC[NMeC][NMeK]([AEEA-AEEA-Dap-C18 diacid])[NMeF][dK]-NH2; disulfide 6-7)

— patent publication US20250277012A1 (Protagonist Therapeutics, Inc., priority 2021, published 2025)
